≈ marks a conversion by molar mass, not a printed value. Where two headings read alike, the source gives them in different places.
Experiments:
Type in all cases: cell-based
[1] = tested on: Staphylococcus epidermidis; experiment: Growth reduction / MIC test against Staphylococcus epidermidis in tryptic soy broth, absorbance 600 nm; conditions: for Percent reduction in growth of Staphylococcus epidermidis: Table 2; for MIC: Staphylococcus epidermidis, read-out: S. epidermidis MIC
Protocol: (§1) The antimicrobial properties of the Formulations were determined by measuring the minimum inhibitory concentration (MIC) or by using an adaptation of the MIC test. […] Additional details of the MIC method can be found at Andrews, J. M., Journal of Antimicrobial Chemotherapy (2001) 48, 5-16, incorporated herein by reference in its entirety.
In accordance with the MIC test, working solutions for each Formulation were prepared by dissolving 100 mg of each Formulation in 10 mL of methanol (Sigma-Aldrich) to generate a 10 mg/mL solution. Next, 10 ml of tryptic soy broth was spiked with 200 μL of the mg/mL Formulation solution to achieve a final concentration of 0.2 mg/mL.
0.2 mL of each concentration of each Formulation (spiked with S. epidermidis) was added in triplicate to a 96-well plate. Additionally, 0.2 mL of tryptic soy broth without any S. epidermidis or Formulation and 0.2 mL of tryptic soy broth with S. epidermidis, but no Formulations, served as negative and positive growth controls, respectively. Plates were then placed in an incubator, at 37° C. for 24 hrs (with shaking), and then measured for growth by taking absorbance measurements at 600 nm with a multi-well plate spectrophotometer (Synergy HT microplate reader, BioTek Instruments, Winooski, Vt.). The efficacy of each Formulation was measured by determining the percent reduction in bacterial growth as a function of Formulation concentration.
For comparison purposes a benzylpiperidino biocide (“Reference 1”) was prepared using ETCS and synthetic methods similar to those described in U.S. Pat. No. 5,036,077, issued Jul. 30, 1991, and incorporated by reference in its entirety. To make Reference 1, 3.9 g of ETCS and 2 g of 4-benzylpiperidine were reacted in 30 mL of methanol. The mixture was heated at 65° C. for 48 hours. Reaction completion was confirmed by ^1H NMR, ^13C NMR, HMQC (2D) NMR and elemental analysis. The antimicrobial activity of Formulations 69-77 and Reference 1 toward S. epidermidis was measured by determining the percent reduction in bacterial growth as a function of concentration, as was done above in EXAMPLE 3.

[2] = tested on: Navicula incerta; experiment: Growth reduction / MIC test against Navicula incerta in Guillard's F/2 medium, chlorophyll fluorescence; conditions: for Percent reduction in growth of Navicula incerta: Table 4
Protocol: as §1
In accordance with the MIC test, working solutions for each Formulation were prepared by dissolving 100 mg of each Formulation in 10 mL of methanol (Sigma-Aldrich) to generate a 10 mg/mL solution. Next, 10 ml of Guillard's F/2 medium was spiked with 200 μL of the 10 mg/mL Formulation solution to achieve a final concentration of 0.2 mg/mL.
0.2 mL of each concentration of each Formulation (spiked with N. incerta) was added in triplicate to a 96-well plate. Additionally, 0.2 mL of Guillard's F/2 medium without any N. incerta or Formulation and 0.2 mL of Guillard's F/2 medium with N. incerta, but no Formulations, served as negative and positive growth controls, respectively. The 96-well plates were placed in an illuminated growth cabinet with a 16:8 light:dark cycle (photon flux density 33 μmol m^−2 s^−1) for 48 hrs at 18° C. and measured for chlorophyll fluorescence using a multi-well plate spectrophotometer (excitation: 360 nm; emission: 670 nm). The efficacy of each Formulation was measured by determining the percent reduction in diatom growth as a function of Formulation concentration.

[3] = tested on: Pseudoalteromonas atlantica; experiment: MIC test against Pseudoalteromonas atlantica
Protocol: as §1
(§2) The antimicrobial activity of Formulations 10-12, also derived from ETCS and PEI, was determined toward a suite of marine microorganisms, namely, Pseudoalteromonas atlantica, Cellulophaga lytica, Cobetia marina, and Halomonas pacifica. The antimicrobial activity of Formulations 10-12 was determined toward these marine microorganisms according to the methods of EXAMPLES 5-7. The MIC for each Formulation against each strain is compared to that of the PEI, ETCS, and TCS (alone) in Table 7.

[4] = tested on: Cobetia marina; experiment: MIC test against Cobetia marina
Protocol: as §1, §2

[5] = tested on: Navicula incerta; experiment: Growth reduction / MIC test against Navicula incerta in Guillard's F/2 medium, chlorophyll fluorescence; conditions: Table 12; read-out: N. incerta MIC
[6] = Formulation Concentration 0.78125 μg/mL
[7] = Formulation Concentration 1.5625 μg/mL
[8] = Formulation Concentration 3.125 μg/mL
[9] = Formulation Concentration 6.25 μg/mL
[10] = Formulation Concentration 12.5 μg/mL
[11] = Formulation Concentration 25 μg/mL
[12] = Formulation Concentration 50 μg/mL
[13] = Formulation Concentration 100 μg/mL

Row | SMILES | Percent reduction in growth of Staphylococcus epidermidis [1, 6] | Percent reduction in growth of Staphylococcus epidermidis [1, 7] | Percent reduction in growth of Staphylococcus epidermidis [1, 8] | Percent reduction in growth of Staphylococcus epidermidis [1, 9] | Percent reduction in growth of Staphylococcus epidermidis [1, 10] | Percent reduction in growth of Staphylococcus epidermidis [1, 11] | Percent reduction in growth of Staphylococcus epidermidis [1, 12] | Percent reduction in growth of Staphylococcus epidermidis [1, 13] | Percent reduction in growth of Navicula incerta [2, 6] | Percent reduction in growth of Navicula incerta [2, 7] | Percent reduction in growth of Navicula incerta [2, 8] | Percent reduction in growth of Navicula incerta [2, 9] | Percent reduction in growth of Navicula incerta [2, 10] | Percent reduction in growth of Navicula incerta [2, 11] | Percent reduction in growth of Navicula incerta [2, 12] | Percent reduction in growth of Navicula incerta [2, 13] | other results
1 | Clc1ccc(Oc2ccc(Cl)cc2OCC2CO2)c(Cl)c1 (stereo not shown) [ETCS, 2-((5-chloro-2-(2,4-dichlorophenoxy)phenoxy)methyl)oxirane] | 0.00% | 9.43% | 8.30% | 16.36% | 18.64% | 17.39% | 22.16% | 9.55% | 0.00% | 0.00% | 0.00% | 0.00% | 34.14% | 89.92% | 91.40% | 93.37% | MIC ([1]; Table 12): > 100 µg/mL; MIC ([3]; Table 7, read-out: P. atlantica MIC): > 100 µg/mL; MIC ([4]; Table 7, read-out: C. marina MIC): > 100 µg/mL; MIC [5]: > 100 µg/mL
2 | Oc1cc(Cl)ccc1Oc1ccc(Cl)cc1Cl [TCS, triclosan] | 81.36% | 86.70% | 92.70% | 92.96% | 93.09% | 92.83% | 93.09% | 93.35% | 14.26% | 22.00% | 84.51% | 91.29% | 94.57% | 93.55% | 94.21% | 94.95% | MIC [1]: 0.781 µg/mL; MIC ([2]; read-out: N. incerta MIC): 3.12 µg/mL (≈ 10.8 µM); MIC ([3]; read-out: P. atlantica MIC): 50 µg/mL (≈ 173 µM); MIC ([4]; read-out: C. marina MIC): > 100 µg/mL

Reference: patent US20110171279A1, “POLYETHYLENIMINE BIOCIDES” (NDSU RESEARCH FOUNDATION, priority 2009, published 2011)
